This assay deals with T1, glycolate oxidase (GO); hydroxyacid oxidase 1 (HAO1) (Homo sapiens, UniProt Q9UJM8).
T1 construct: recombinant full-length human HAO1
T1 sequence (Q9UJM8 1-370): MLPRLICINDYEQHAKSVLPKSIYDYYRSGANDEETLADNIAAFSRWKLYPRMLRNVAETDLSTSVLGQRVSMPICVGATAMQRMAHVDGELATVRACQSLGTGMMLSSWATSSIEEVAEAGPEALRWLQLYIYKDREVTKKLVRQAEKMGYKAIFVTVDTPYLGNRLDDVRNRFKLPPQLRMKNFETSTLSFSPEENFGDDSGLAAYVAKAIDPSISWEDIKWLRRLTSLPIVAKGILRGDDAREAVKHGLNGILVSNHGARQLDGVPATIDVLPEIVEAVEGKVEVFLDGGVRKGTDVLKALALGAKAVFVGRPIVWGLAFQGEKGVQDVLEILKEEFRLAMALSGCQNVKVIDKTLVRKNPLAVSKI
The assay can be described thus: hydrogen peroxide-Amplex red GO enzymatic assay; partial inhibition, less than […] at […]. The format is biochemical.

Usually IC50 stands for the concentration needed to halve the response being measured.

SMILES strings stand for the structures. Read-outs that look alike come from different tables or passages of the source.

As for `CC[C@H](NC(=O)c1c(C)c(-c2ccccc2)nc2ccccc12)c1ccccc1` [SB 222200], the IC50 (read-out: IC50) is > 100 µM.
On to `CCCc1nc2c(C)cc(-c3nc4ccccc4n3C)cc2n1Cc1ccc(-c2ccccc2C(=O)O)cc1` [Telmisartan], for which the IC50 is > 100 µM.

The record behind these values is article PMC5037430 (Scientific Reports, 2016).
